Test results: patent US20080300298A1, “Honokiol Derivates For the Treatment of Proliferative Disorders” (priority 2005, published 2008)

Columns and labels:
[1] = tested on: MM.1S cells; assay: [3H]-thymidine uptake with IL-6, IGF-1 or BMSCs; format: cell-based, human; details: 48 h
Experimental: DNA synthesis was measured as previously described, see, for example, Hideshima et al Blood. 2000; 96:2943-2950. Cells in 96-well culture plates were pulsed with 0.5 μCi/well of [^3H]-thymidine (Perkin Elmer, Boston, Mass.) during the last 8 h of culture, harvested onto glass filters with an automatic cell harvester (Cambridge Technology, Cambridge, Mass.), and counted using the LKB Betaplate scintillation counter (Wallac, Gaithersburg, Md.). All experiments were performed in triplicate.
Assessment of HNK-induced cytotoxicity against patient MM cells: Cytotoxicity of HNK against fresh MM cells was determined as previously determined, see, for example, Mitsiades et al Cancer Cell. 2004; 5:221-230. […] A CD38^high fraction enriched for MM cells was determined in side and forward scatter panel in each case. The expression of CD138 on gated cells was also evaluated. After HNK-treatment for 48 h, cells were harvested and percentage of CD38^high cells with or without HNK-treatment was evaluated. […] Cells were stained with propidium iodide (PI; 50 μg/mL; Sigma, St Louis, Mo.), and cell cycle profile was determined by using the program M software on an EPICS XL flow cytometer (Beckman Coulter, Hialeah, Fla.). […] Fluorescence intensity of TUNEL and APO 2.7 staining was determined using on EPICS XL flow cytometer. Cytotoxicity was determined by trypan blue exclusion assay. […]

[2] = tested on: CH12.hCD40-LMP1 B cells; assay: CD40/LMP1 mediated cytokine and IgM production; format: cell-based, mouse
Experimental: IL-6 and TNF-a levels in culture supernatants were determined by ELISA. Subsequent IgM production by CH12.LX cells is also affected, as determined by assaying IgM secretion by CH12.hCD40-LMP1 cells. IgM secretion was measured by hemolytic plaque assay, as previously described (GA Bishop. 1991. J. Immunol. 147(4): 1107-1114).

[3] = tested on: KBM-5 cells; assay: Live and dead assay; format: cell-based, human; details: KBM-5, TNF 1 nM with honokiol (10 mM printed); TNF alone 5%
Experimental: (D) depicts that honokiol enhances TNF-induced cell death.
Live and dead assay. The Live and Dead assay (Molecular Probes), which determines intracellular esterase activity and plasma membrane integrity, was used to measure apoptosis. […] It also uses the […] (red fluorescence), which can enter cells only through damaged membranes and bind to nucleic acids but is excluded by the intact plasma membrane of live cells. Briefly, 1×10^5 cells were incubated with […] honokiol for 24 h and then treated with 1 nM TNF for 16 h at 37° C. Cells were stained with the Live and Dead reagent (5 mM ethidium homodimer, 5 mM calcein-AM) and then incubated at 37° C. for 30 min. Cells were analyzed under a fluorescence microscope (Labophot-2, Nikon, Tokyo, Japan).
By using caspase-activated PARP cleavage, it was shown that the enhanced cytotoxicity was due to apoptosis. TNF-induced PARP cleavage was enhanced in the honokiol-treated cells (FIG. 26C).

SMILES: C=CCc1ccc(O)c(-c2ccc(O)c(CC=C)c2)c1 [HNK, Honokiol]
- DNA synthesis triggered by binding to BMSCs ([1]; MM.1S on BMSCs of MM patients): abrogated
- growth inhibition in the presence of IL-6 or IGF-1 ([1]; MM.1S): Neither IL-6 nor IGF-1 protected against HNK induced growth inhibition
- CD40/LMP1 mediated IL-6, TNF-a production ([2]; CH12.LX cells transfected with hCD40-LMP1, not IL-10 or IL-4): inhibits CD40/LMP1 mediated IL-6, TNF-a production in a dose-dependent manner
- IgM secretion (hemolytic plaque assay) ([2]; CH12.hCD40-LMP1 cells): inhibited IgM production
- TNF-induced apoptosis (Live/Dead assay) [3]: 65%
